Laboratory results from publication PMC6032411, “Synthesis and Biological Evaluation of Zeise’s Salt Derivatives with Acetylsalicylic Acid Substructure” (International Journal of Molecular Sciences, 2018).

Legend:
[1] = tested on: HT-29 colon carcinoma cells; assay: Antiproliferative effects, crystal violet cell biomass assay, HT-29; assay type: cell-based; details: for IC50: 72 h incubation, crystal violet
Method: (§1) The growth inhibitory effects of ASA, Zeise’s salt as well as the thereof derived complexes 1a–4a were investigated in vitro against the HT-29 and the MCF-7 cell lines. Thereby, an already published crystal violet assay was employed, in which the cell biomass reduced by the substances was determined as parameter. Cisplatin was applied as positive control.
(§2) The HT-29 colon carcinoma and the MCF-7 breast cancer cell lines were obtained from the cell line service (CLS, Eppelheim, Germany). The HT-29 and the MCF-7 cells were cultivated as a monolayer in Dulbecco’s Modified Eagle Medium (DMEM) containing glucose (4.5 g/L) and lacking phenol red (GE Healthcare, Little Chalfont, UK), supplemented with fetal calf serum (FCS; 10%; Biochrom) and L-glutamine (584 mg/L; GE Healthcare). The cells were cultured in a humidified atmosphere (5% CO2/95% air) at 37 °C and were passaged regularly twice a week. The cell lines were characterized by typing short tandem repeats and routinely monitored for mycoplasma infection.
(§3) The effects of the newly synthesized substances on the cell biomass were determined in vitro while employing a crystal violet assay. The testing was performed following a modified protocol, as previously published. Exponentially growing HT-29 and MCF-7 cells were seeded in 96-well tissue culture plates with a density of 3 × 10^3 and 2 × 10^3 cells, respectively, in 100 µL of completed DMEM per well in quadruples. The plates were kept in a humidified atmosphere (5% CO2/95% air) at 37 °C for 24 h prior to the addition of completed medium containing the vehicle DMF, the positive control Cisplatin, and the compounds to be tested, respectively. After 72 h of incubation, the medium was removed, the cells were washed with PBS and fixed using a solution of glutaraldehyde in PBS (1%, v/v). The cell biomass was examined by staining the chromatin of adherent cells with crystal violet, extraction of the stain with ethanol (70%, v/v) and following measurement of absorbance (λ = 590 nm). The cell viability is given as percentage of cell viability of the vehicle treated control, which was set to 100%. The IC50 values represent the mean ± standard error of mean of ≥2 independent experiments and they were calculated with Prism 7.0 (GraphPad, San Diego, CA, USA) using nonlinear regression and decadal logarithm of the inhibitor versus variable slope equation. The top constraint was set to 100%.

ovine COX-1 = biological target: T1, ovine COX-1 (Ovis aries, UniProt P05979); assay: COX-1 isoenzyme inhibition (COX Inhibitor Screening Assay, enzyme immunoassay); assay type: biochemical; details: 10 µM, incubation 10 min, isolated enzyme
T1 construct: purchased Cayman Chemicals
T1 sequence (P05979 25-600): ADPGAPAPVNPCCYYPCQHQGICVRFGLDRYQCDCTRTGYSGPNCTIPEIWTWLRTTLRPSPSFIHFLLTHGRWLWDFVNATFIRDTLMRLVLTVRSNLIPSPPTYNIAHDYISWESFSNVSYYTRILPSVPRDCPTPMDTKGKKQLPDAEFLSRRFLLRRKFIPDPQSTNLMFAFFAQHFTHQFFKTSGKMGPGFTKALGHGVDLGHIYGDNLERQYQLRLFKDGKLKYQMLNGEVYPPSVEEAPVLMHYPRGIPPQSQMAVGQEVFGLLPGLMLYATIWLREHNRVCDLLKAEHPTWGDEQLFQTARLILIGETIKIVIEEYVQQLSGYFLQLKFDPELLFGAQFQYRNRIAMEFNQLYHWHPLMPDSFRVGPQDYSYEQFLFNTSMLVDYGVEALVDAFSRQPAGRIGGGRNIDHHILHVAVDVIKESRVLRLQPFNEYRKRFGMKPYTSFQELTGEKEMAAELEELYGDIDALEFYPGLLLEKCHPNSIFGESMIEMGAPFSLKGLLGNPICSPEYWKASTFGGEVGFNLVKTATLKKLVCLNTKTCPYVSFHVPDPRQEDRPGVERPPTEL
Method: (§4) The impact of the compounds (10 µM) to inhibit the isoenzymes COX-1 and COX-2, respectively, was investigated (Figure 5).
(§5) The inhibition of both isolated isoenzymes, ovine COX-1 and ovine COX-2, respectively, were investigated at a concentration of 10 µM of the respective substances while employing an enzyme immunoassay (COX Inhibitor Screening Assay, Cayman Chemicals, Ann Arbor, MI, USA). The conduction of the assay was performed following the manufacturer’s protocol. Thereby, the isoenzymes were incubated with the particular compounds for exactly 10 min. The values express the mean of duplicate determinations and they represent the mean ± standard deviation of ≥2 independent experiments. The untreated control was set to 0% inhibition.
(§6) Figure 5 Inhibition of isolated ovine COX-1 and COX-2. Values are given as % COX inhibition calculated from initial activity of vehicle treated enzyme and represent the mean ± standard deviation of ≥2 independent experiments.

[2] = Evaluation of stability by capillary electrophoresis; assay type: physicochemical
Excerpt: Capillary electrophoresis (CE) was employed in order to determine the stability of the anionic platinum(II) complexes in aqueous media. Therefore, a method was established that allowed the detection of the respective complex and possible degradation products in a short period of time (for further information on the setup see Section 4). Methanol was chosen as a non-coordinating co-solvent for the sample solutions (final amount of methanol: 50%) in order to guarantee the solubility of decomposition products. In contrast to HPLC analysis, it was possible to separate the platinum complex (tm = 6.3 min) from the free ligand (tm = 4.4 min) using a 50 mM sodium tetraborate solution (pH = 9.3) as the background electrolyte (temperature: 25 °C; UV-detection: 230 nm; capillary: fused silica 64.5 cm × 75 µm, effective length 56 cm; 20 kV). […] The reactions followed pseudo-first order kinetics (R^2 ≥ 0.99) under the experimental conditions that were implemented.
A 50 mM sodium tetraborate solution with a pH of 9.3 (adjusted with 1 M NaOH solution) was used as the background electrolyte (BGE). Prior to the first utilization new capillaries were washed with 1 M NaOH solution (45 min), water (45 min) and BGE (45 min). Samples were injected into the capillary via hydrodynamic mode (50 mbar for 2 s). The capillary was thermostated at 25 °C, whereas the autosampler was kept at 37 °C by an external water bath. The separation voltage was 20 kV and the detection wavelength was set to 230 nm. The required run time was 10 min. The capillary was flushed consecutively with 0.1 M NaOH solution (3 min), water (3 min), and BGE (5 min) before each measurement. For the purpose of stability testing, the complexes were dissolved in methanol and diluted 1:1 (v/v) with water, 1.8% aqueous NaCl solution, or double-concentrated PBS to a final concentration of 1 mM. Every experiment was performed in triplicate. The half-lives are presented as mean ± standard deviation. All of the samples, buffers, and washing solutions were membrane filtered (0.22 µm porosity) and degassed by ultrasonication prior to usage.

[3] = tested on: MCF-7 breast cancer cells; assay: Antiproliferative effects, crystal violet cell biomass assay, MCF-7; assay type: cell-based; details: for IC50: 72 h incubation, crystal violet
Method: as §1, §2, §3

ovine COX-2 = biological target: T2, ovine COX-2 (Ovis aries, UniProt P79208); assay: COX-2 isoenzyme inhibition (COX Inhibitor Screening Assay, enzyme immunoassay); assay type: biochemical; details: for COX-2 inhibition: 10 µM, incubation 10 min, isolated enzyme
T2 construct: purchased Cayman Chemicals
T2 sequence (P79208 17-603): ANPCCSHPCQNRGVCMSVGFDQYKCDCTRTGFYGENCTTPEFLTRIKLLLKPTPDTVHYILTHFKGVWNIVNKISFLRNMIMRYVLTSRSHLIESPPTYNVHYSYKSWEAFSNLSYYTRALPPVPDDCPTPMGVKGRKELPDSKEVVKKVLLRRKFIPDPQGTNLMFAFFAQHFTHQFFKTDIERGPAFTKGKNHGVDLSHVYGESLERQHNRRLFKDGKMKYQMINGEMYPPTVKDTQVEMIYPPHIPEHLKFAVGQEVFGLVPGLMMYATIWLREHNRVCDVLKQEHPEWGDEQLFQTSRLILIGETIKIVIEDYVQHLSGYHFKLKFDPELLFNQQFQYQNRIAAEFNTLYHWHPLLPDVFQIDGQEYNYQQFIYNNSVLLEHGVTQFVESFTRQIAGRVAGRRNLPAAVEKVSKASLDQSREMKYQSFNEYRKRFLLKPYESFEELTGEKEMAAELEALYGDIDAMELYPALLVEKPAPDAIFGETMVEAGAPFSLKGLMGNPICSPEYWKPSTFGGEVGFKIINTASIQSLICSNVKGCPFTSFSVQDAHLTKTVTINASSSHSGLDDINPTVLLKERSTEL
Method: as §4, §5, §6

[4] = Stability in other media (aqueous conditions, cell culture medium, DMSO); assay type: physicochemical; details: degraded immediately after addition
[5] = design: method as in doi:10.1002/zaac.19603050315; details: degrades in a redox reaction building acetaldehyde and Pt(0); cited from earlier work
[6] = methanol/water 1:1, 1 mM, 37 °C
[7] = up to a concentration of 100 µM

Molecule | IC50 [1] [µM] | COX-1 inhibition (ovine COX-1) [%] | half-live (τ1/2) [2, 6] [h] | IC50 [3] [µM] | COX-2 inhibition (ovine COX-2) [%] | IC50 ([1]; Homo sapiens, HT-29) [µM] | antiproliferative activity against HT-29 [1, 7] | IC50 ([3]; Homo sapiens, MCF7) [µM] | antiproliferative activity against MCF-7 [3, 7] | inhibition at 10 µM (ovine COX-2; read-out: COX-2 inhibition) [%] | stability in methanol ([2]; methanol, 48 h) | recovery of the intact complex ([2]; 154 mM Cl− in 50% methanol/water, after 168 h) [%] | half-live (τ1/2) ([2]; PBS pH 7.4 in methanol/water, degraded to Pt-Butene-SA) [h] | stability in cell culture medium [4] | stability under aqueous conditions [5]
Potassium {trichlorido[η^2-(hex-5-en-1-yl)-2-acetoxybenzoate]platinate(II)} [Compound 4a] | 41.4 ± 0.3 | 96.6 | 55.4 ± 4.0 | 43.7 ± 5.7 | 33.0 | – | – | – | – | – | – | – | – | – | –
CC(=O)Oc1ccccc1C(=O)O [ASA, acetylsalicylic acid] | – | 29.2 | – | – | – | ≥ 50 | inactive | ≥ 50 | inactive | 1 | – | – | – | – | –
Potassium {trichlorido[η^2-(prop-2-en-1-yl)-2-acetoxybenzoate]platinate(II)} [Compound 1a] | 49.7 ± 1.8 | 67.3 | 0.595 ± 0.01 | ≥ 50 | 17.4 | – | – | – | – | – | stable | – | – | – | –
Potassium {trichlorido[η^2-(pent-4-en-1-yl)-2-acetoxybenzoate]platinate(II)} [Compound 3a] | 44.2 ± 3.4 | 93.8 | 73.5 ± 4.7 | 37.4 ± 2.5 | 15.3 | – | – | – | – | – | – | – | – | – | –
Potassium {trichlorido[η^2-(but-3-en-1-yl)-2-acetoxybenzoate]platinate(II)} [Compound 2a] | 31.4 ± 0.4 | 70.0 | 69.6 ± 3.0 | 30.1 ± 1.5 | 28.7 | – | – | – | – | – | – | 80.3 ± 3.2 | 7.95 ± 0.09 | – | –
N.N.[Cl][Pt][Cl] [Cisplatin, reference compound] | 2.6 ± 0.1 | – | – | 3.7 ± 0.3 | – | – | – | – | – | – | – | – | – | – | –
C=C.[Cl-].[Cl-].[Cl-].[K+].[Pt+2] [Zeise’s salt, potassium trichlorido[ethylene]platinate(II)] | ≥ 50 | 83.8 | – | ≥ 50 | 11.3 | – | – | – | – | – | – | – | – | not stable | very unstable
